Measurements reported in ChEMBL document CHEMBL1151107, “Inhibition of dopamine beta-hydroxylase by goitrin, a natural antithyroid compound” (J Nat Prod, 1988).

Key:
[1] = biological target: T1, Dopamine beta-hydroxylase (Bos taurus) (UniProt P15101); assay: Inhibition of bovine adrenal dopamine beta-hydroxylase assessed as norepinephrine formation per mg of protein at 0.2 mM after 45 mins
T1 sequence (whole entry): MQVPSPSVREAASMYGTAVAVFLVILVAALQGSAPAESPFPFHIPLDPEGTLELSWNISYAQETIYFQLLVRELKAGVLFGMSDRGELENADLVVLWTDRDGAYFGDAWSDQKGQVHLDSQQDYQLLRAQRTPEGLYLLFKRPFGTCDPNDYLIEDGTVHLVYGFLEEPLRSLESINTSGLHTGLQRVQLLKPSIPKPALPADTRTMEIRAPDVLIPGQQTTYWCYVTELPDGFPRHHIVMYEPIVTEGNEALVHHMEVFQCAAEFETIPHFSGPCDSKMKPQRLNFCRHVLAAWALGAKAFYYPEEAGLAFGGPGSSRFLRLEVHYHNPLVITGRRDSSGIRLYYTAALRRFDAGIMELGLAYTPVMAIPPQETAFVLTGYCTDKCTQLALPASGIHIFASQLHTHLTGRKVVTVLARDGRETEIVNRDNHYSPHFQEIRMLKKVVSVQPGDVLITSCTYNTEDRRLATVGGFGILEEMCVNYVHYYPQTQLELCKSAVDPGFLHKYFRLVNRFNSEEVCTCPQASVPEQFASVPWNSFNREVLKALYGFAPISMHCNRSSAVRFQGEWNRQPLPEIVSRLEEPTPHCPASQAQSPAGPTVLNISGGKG

[2] = biological target: T1, Dopamine beta-hydroxylase (Bos taurus); assay: Inhibition of bovine adrenal dopamine beta-hydroxylase assessed as norepinephrine formation per mg of protein at 0.1 mM after 45 mins
[3] = biological target: T1, Dopamine beta-hydroxylase (Bos taurus); assay: Inhibition of bovine adrenal dopamine beta-hydroxylase at 0.2 mM
[4] = biological target: T1, Dopamine beta-hydroxylase (Bos taurus); assay: Inhibition of bovine adrenal dopamine beta-hydroxylase at 0.1 mM
Rattus norvegicus [5] = assay: Inhibition of dopamine beta-hydroxylase in Sprague-Dawley rat assessed as decrease in brain norepinephrine level at 50 mg/kg, ip after 1 hr by liquid chromatography (RVb=0.222+/-0.069); assay type: functional; details: route intraperitoneal
Rattus norvegicus [6] = assay: Inhibition of dopamine beta-hydroxylase in Sprague-Dawley rat assessed as decrease in brain norepinephrine level at 50 mg/kg, ip after 2.5 hrs by liquid chromatography (RVb=0.216+/-0.025); assay type: functional; details: route intraperitoneal
Rattus norvegicus [7] = assay: Inhibition of dopamine beta-hydroxylase in Sprague-Dawley rat assessed as decrease in brain norepinephrine level at 50 mg/kg, ip after 6 hrs by liquid chromatography (RVb=0.206+/-0.022); assay type: functional; details: route intraperitoneal
Rattus norvegicus [8] = assay: Inhibition of dopamine beta-hydroxylase in Sprague-Dawley rat assessed as increase in cardiac dopamine level at 50 mg/kg, ip after 4 hrs by liquid chromatography (RVb=0.023+/-0.005); assay type: functional; details: route intraperitoneal
Rattus norvegicus [9] = assay: Inhibition of dopamine beta-hydroxylase in Sprague-Dawley rat assessed as increase in adrenal dopamine level at 50 mg/kg, ip after 4 hrs by liquid chromatography (RVb=5.9+/-1.0); assay type: functional; details: route intraperitoneal
[10] = Drug level in Sprague-Dawley rat heart at 50 mg/kg, ip after 4 hrs; assay type: ADME, organism-based; parameters: dose 50 mg/kg, route intraperitoneal; details: read-out: Drug uptake
[11] = Drug level in Sprague-Dawley rat brain at 50 mg/kg, ip after 4 hrs; assay type: ADME, organism-based; parameters: dose 50 mg/kg, route intraperitoneal; details: read-out: Drug uptake

Row | Activity [1] [nmol] | Activity [2] [nmol] | inhibition [3] [%] | inhibition [4] [%] | concentration at 4 h [10] [ng/g] | concentration at 4 h [11] [ng/g] | Structure (SMILES) | Activity (Rattus norvegicus [5]) [µg/g] | Activity (Rattus norvegicus [6]) [µg/g] | Activity (Rattus norvegicus [7]) [µg/g] | Activity (Rattus norvegicus [8]) [µg/g] | Activity (Rattus norvegicus [9]) [µg/g]
1 | 49 | 77 | 78 | 55 | 22300 | 21000 | C=CC1CNC(=S)O1 (stereo unspecified) | 0.249 | 0.158 | 0.092 | 0.071 | 10
2 |  | 62 |  |  |  |  | C=C[C@@H]1CNC(=S)O1 |  |  |  |  | 
3 | 53 |  |  |  |  |  | Cn1ccnc1S [METHIMAZOLE] | 0.216 | 0.143 | 0.076 |  | 
